Test results: US20190337889A1, “COMPOSITIONS AND METHODS OF REGULATING CANCER RELATED DISORDERS AND DISEASES” (ONCO THERAPIES LLC, priority 2016, published 2019)

What was measured:
[1] = tested on: A549 xenograft; assay: Zebrafish xenograft assay with implanted A549 cells; type: in vivo; settings: zebrafish embryos, 100 uM, 4 days after implantation, n=10 to 15
Protocol: Zebrafish xenograft assay. Zebrafish embryos with implanted A549 cells were imaged within 6 hours of cell injection (day 0) and treated with compounds. At 4 days post injection (day 4) the embryos were imaged again. The area of fluorescence due to the labeled cells was measured using Image J at day 0 (area 0) and day 4 (area 4). The change in area was calculated by subtracting area 0 from area 4 (=d area). D area was then normalized for the size of the initial tumor by dividing d area by area 0 (=d area/area 0).

[2] = tested on: tumor cells; assay: Effect on the growth of a variety of tumor cells (summary of Table 1); type: cell-based; settings: IC50 value of less than 100 μM was considered active
Protocol: (§1) Maintenance and Treatment of Cell Lines. Human HepG2 hepatocarcinoma cells and human U87MG glioma cells (ATCC, Manassas, Va.) were maintained in EMEM medium supplemented with 10% FBS (Hyclone, Logan, Utah). The human 1321N1 astrocytoma cells (European Collection of Cell Cultures, Sigma-Aldrich) were cultured in Dulbecco's modified Eagle's medium supplemented with 10% FBS and 2 mM L-glutamine. Human prostate carcinoma cell line PC3 was cultured in F-12K medium (Life Technologies) supplemented 10% FBS. Human lung carcinoma cell line A549 was cultured in DMEM+2 mM glutamine+10% FBS. ER positive, estrogen independent for growth MCF7/LCC9 cell line was cultured in IMEM (Biofluids) supplemented with 5% charcoal stripped calf serum. Medulloblastoma cell line DAOY was cultured in Eagle's MEM supplemented with 10% FBS. All cell lines except MDA-MB-321 were cultured at 37° C. in 5% CO2, and the medium was replaced every 2-3 days. MDA-MB-231 was grown in Leibovitz's L-15 medium with 10% FBS without CO2 supplementation.
Cell death assay. The extent of cell death and toxicity of the compounds was tested by XTT assay. The cells were plated in their respective media in 96-well plates. […] The plate was incubated for 4 hours at 37° C. and then the absorbance was read at a wavelength of 490 nm.
The effect of NT015 and NT016 on the growth of a variety of tumor cells was evaluated. […]

[3] = tested on: DAOY; assay: XTT cell death assay, DAOY medulloblastoma cells; type: cell-based; settings: Homo sapiens, # = 200 uM not tested, read-out: DAOY: concentration with effect on cancer cells
Protocol: as §1
(§2) Cell death assay. The extent of cell death and toxicity of the compounds was tested by XTT assay. The cells were plated in their respective media in 96-well plates. The compounds and were added in dilutions ranging from 0.01 nM to 200 μM and for control DMSO to 1% was used. […] For XTT assay first the medium in the wells was replaced with 200 μs of fresh phenol-red free medium. Then 50 μls of XTT solution with PMS was added to the wells. The XTT solution was made adding 0.02% phenazine methosulfate (Sigma-Aldrich #P9625) to 1 mg/ml XTT sodium salt made up in phenol-red free RPMI (Sigma-Aldrich #X4636). The plate was incubated for 4 hours at 37° C. and then the absorbance was read at a wavelength of 490 nm.

[4] = tested on: PC3 cells; assay: XTT cell death assay, PC3 prostate carcinoma cells; type: cell-based; settings: Homo sapiens, PC-3, # = 200 uM not tested, read-out: PC3: concentration with effect on cancer cells
Protocol: as §1, §2

[5] = tested on: MCF7/LCC9 cell line; assay: XTT cell death assay, MCF7/LCC9 cells; type: cell-based; settings: Homo sapiens, # = 200 uM not tested, read-out: LCC-9: concentration with effect on cancer cells
Protocol: as §1, §2

[6] = tested on: HepG2 cells; assay: XTT cell death assay, HepG2 hepatocarcinoma cells; type: cell-based, human; settings: Homo sapiens, HepG2, *Greater than 50% inhibition, dilutions 0.01 nM to 200 μM, usually 24 or 48 hours, read-out: HepG2* (liver cancer): concentration with greater than 50% inhibition
Protocol: as §1, with “FBS.” for “FBS. All cell lines except MDA-MB-321 were cultured at 37° C. in 5% CO2, and the medium was replaced every 2-3 days. MDA-MB-231 was grown in Leibovitz's L-15 medium with 10% FBS without CO2 supplementation.”
as §2, with “#X4636).” for “#X4636). The plate was incubated for 4 hours at 37° C. and then the absorbance was read at a wavelength of 490 nm.”

[7] = tested on: A549; assay: XTT cell death assay, A549 lung carcinoma cells; type: cell-based; settings: Homo sapiens, # = 200 uM not tested, read-out: A549: concentration with effect on cancer cells
Protocol: as §1, §2

[8] = tested on: HepG2 cells; assay: Caspase assay (Caspase-Glo 3/7) on HepG2 cells; type: cell-based, human; settings: 48 hours after addition, 100 uM, n=4
Protocol: Caspase Assay. Caspase assay was conducted by using the Promega Caspase-Glo 3/7 kit. 100 ul of caspase-Glo 3/7 reagent was added to each well of a white walled 96-well plate containing 100 ul of blank, negative control cells or treated cells in culture medium. The contents of the wells were mixed gently and incubated at room temperature for 30 minutes to 3 hours. The luminescence of each sample was read in a luminometer.

For `CC(Cc1cccc2ccccc12)NCCc1ccc(O)cc1` (stereo not drawn) [NT016, 4-(2-((1-(naphthalen-1-yl)propan-2-yl)amino)ethyl)phenol], the “area of A549 xenograft implant” value [1] was “efficacy of reducing the area of xenograft significantly”, the “inhibition of liver, lung, breast, prostate and CNS cancer cell growth” value [2] was “potent inhibitors” and the minimal effective concentration [3] was 100 µM. It also gave a minimal effective concentration [4] of 200 µM, a minimal effective concentration [5] of 100 µM and a minimal effective concentration [6] of 100 µM. The minimal effective concentration [7] was 100 µM.

For `CC(N)Cc1ccc2ccccc2c1` (stereo not drawn) [NT015, 1-(naphthalen-2-yl)propan-2-amine], the “inhibition of liver, lung, breast, prostate and CNS cancer cell growth” value [2] was “potent inhibitors” and the “caspase activity (fluorescence ratio to untreated cells)” value [8] was “increase in caspase activity”.
